Reference: patent US6642227B2, “Inhibitors of c-Jun N-terminal kinases (JNK) and other protein kinases” (Vertex Pharmaceuticals Incorporated, priority 2001, dated 2003)

target: T1, activated JNK3 (Homo sapiens, UniProt P53779); test: JNK inhibition assay (spectrophotometric coupled-enzyme assay); type: biochemical; conditions: activated JNK3 10 nM, 10 μM ATP, 30° C.; read-out: JNK3 Activity (Ki class A-C)
T1 construct: One such construct encodes amino acid residues Ser40-Glu402 of JNK3α1 and is preceded by Met and Gly residues; Met-Gly dipeptide (initiator Met plus Gly added for the NcoI site) (N); made in house; host or cells: E. coli BL21 (DE3)
T1 sequence (P53779 40-402): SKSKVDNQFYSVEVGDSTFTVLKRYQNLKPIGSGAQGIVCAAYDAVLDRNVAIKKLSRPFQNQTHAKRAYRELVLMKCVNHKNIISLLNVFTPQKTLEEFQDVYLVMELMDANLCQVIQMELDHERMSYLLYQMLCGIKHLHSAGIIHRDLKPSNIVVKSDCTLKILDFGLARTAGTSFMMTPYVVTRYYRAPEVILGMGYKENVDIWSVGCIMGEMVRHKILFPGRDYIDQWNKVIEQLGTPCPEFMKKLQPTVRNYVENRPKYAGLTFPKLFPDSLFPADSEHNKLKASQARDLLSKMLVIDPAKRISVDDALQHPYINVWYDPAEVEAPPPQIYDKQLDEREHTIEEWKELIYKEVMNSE
Excerpt: A BLAST search of the EST database using the published JNK3α1 cDNA as a query identified an EST clone (#632588) that contained the entire coding sequence for human JNK3α1. Polymerase chain reactions (PCR) using pfu polymerase (Strategene) were used to introduce restriction sites into the cDNA for cloning into the pET-15B expression vector at the NcoI and BamHI sites. The protein was expressed in E. coli. Due to the poor solubility of the expressed full-length protein (Met 1-Gln 422), an N-terminally truncated protein starting at Ser residue at position 40 (Ser 40) was produced. This truncation corresponds to Ser 2 of JNK1 and JNK2 proteins, and is preceded by a methionine (initiation) and a glycine residue. The glycine residue was added in order to introduce an NcoI site for cloning into the expression vector. In addition, systematic C-terminal truncations were performed by PCR to identify a construct that give rise to diffraction-quality crystals. One such construct encodes amino acid residues Ser40-Glu402 of JNK3α1 and is preceded by Met and Gly residues.
The construct was prepared by PCR using deoxyoligonucleotides: 5′ […] 3′ (forward primer with initiation codon underlined)(SEQ ID NO:1) and 5′ […] 3′ (reverse primer with stop codon underlined)(SEQ ID NO:2) as primers and was confirmed by DNA sequencing.
E.coli strain BL21 (DE3) (Novagen) was transformed with the JNK3 expression construct and grown at 30° C. in LB supplemented with 100 μg/ml carbenicillin in shaker flasks until the cells were in log phase (OD600˜0.8). Isopropylthio-β-D-[…] (IPTG) was added to a final concentration of 0.8 mM and the cells were harvested 2 hours later by centrifugation.
E. coli cell paste containing JNK3 was resuspended in 10 volumes/g lysis buffer (50 mM HEPES, pH 7.2, containing 10% glycerol (v/v), 100 mM NaCl, 2 mM DTT, 0.1 mM PMSF, 2 μg/ml Pepstatin, lug/ml each of E-64 and Leupeptin). Cells were lysed on ice using a microfluidizer and centrifuged at 100,000×g for 30 min at 4° C. The 100,000×g supernatant was diluted 1:5 with Buffer A (20 mM HEPES, pH 7.0, 10% glycerol (v/v), 2 mM DTT) and purified by SP-Sepharose (Pharmacia) cation-exchange chromatography (column dimensions: 2.6×20 cm) at 4° C. The resin was washed with 5 column volumes of Buffer A, followed by 5 column volumes of Buffer A containing 50 mM NaCl. Bound JNK3 was eluted with a 7.5 column volume linear gradient of 50-300 mM NaCl. JNK3 eluted between 150-200 mM NaCl.
Five mg of JNK3 was diluted to 0.5 mg/ml in 50 mM HEPES buffer, pH 7.5, containing 100 mM NaCl, 5 mM DTT, 20 mM MgCl2 and 1 mM ATP. GST-MKK7(DD) was added at a molar ratio of 1:2.5 GST-MKK7:JNK3. After incubation for 30 minutes at 25° C., the reaction mixture was concentrated 5-fold by ultrafiltration in a Centriprep-30 (Amicon, Beverly, Mass.), diluted to 10 ml and an additional 1 mM ATP added. This procedure was repeated three times to remove ADP and replenish ATP. The final addition of ATP was 5 mM and the mixture incubated overnight at 4° C.
The activated JNK3/GST-MKK7(DD) reaction mixture was exchanged into 50 mM HEPES buffer, pH 7.5, containing 5 mM DTT and 5% glycerol (w/v) by dialysis or ultrafiltration. The reaction mixture was adjusted to 1.1 M potassium phosphate, pH 7.5, and purified by hydrophobic interaction chromatography (at 25° C.) using a Rainin Hydropore column. […] Activated JNK3 (i.e. doubly phosphorylated JNK3) was stored at −70° C. at 0.25-1 mg/ml.
Compounds were assayed for the inhibition of JNK3 by a spectrophotometric coupled-enzyme assay. In this assay, a fixed concentration of activated JNK3 (10 nM) was incubated with various concentrations of a potential inhibitor dissolved in DMSO for 10 minutes at 30° C. in a buffer containing 0.1 M HEPES buffer, pH 7.5, containing 10 mM MgCl2, 2.5 mM phosphoenolpyruvate, 200 μM NADH, 150 μg/mL pyruvate kinase, 50 μg/mL lactate dehydrogenase, and 200 μM EGF receptor peptide. […]

Ki, < 100 nM:
CSc1sc(-c2ccnc(Nc3ccccc3)n2)c(-c2ccc(Cl)cc2)c1C#N [IIa-10, 2-Methylsulfanyl-5-(2-phenylamino-pyrimidin-4-yl)-4-(4-chloro-phenyl)-thiophene-3-carbonitrile]
CSc1sc(-c2ccnc(Nc3ccccc3)n2)c(-c2ccc(C)cc2)c1C#N [IIa-14, 2-Methylsulfanyl-5-(2-phenylamino-pyrimidin-4-yl)-4-p-tolyl-thiophene-3-carbonitrile]
CCOc1sc(-c2ccnc(Nc3ccccc3)n2)c(-c2ccc(Cl)cc2)c1C#N [IIa-11, 2-Ethoxy-5-(2-phenylamino-pyrimidin-4-yl)-4-(4-chloro-phenyl)-thiophene-3-carbonitrile]
CCOc1sc(-c2ccnc(Nc3ccccc3)n2)c(-c2ccc(C)cc2)c1C#N [IIa-15, 2-Ethoxy-5-(2-phenylamino-pyrimidin-4-yl)-4-p-tolyl-thiophene-3-carbonitrile]
